Data as given in patent publication US20100119595A1, “Monounsaturated fatty acids and perhydrocyclopentanophenanthrene nucleus combination molecules, and their precursors, and the use of all of these as weight-loss agents” (priority 2001, published 2010).

Experiment: Rat study of 2 hydroxyestrone oleate (Example 12)
Format: in vivo, Osborne Mendle rats
Conditions: rats, oral gavage 21 days, 10, 5, 3.33 or 2.5 micromoles/kg
Protocol: Osborne Mendle rats are selected as the study subjects due to their propensity to gain fat when fed a high fat diet. An initial measurement of body weight is performed on each rat. The rats are placed individually in appropriate cages and allowed an ad libitum diet of standard rat chow and water for a 10-day period. During this 10-day period the rats are gavaged daily with 0.1 cc volume of sunflower oil to allow them to become comfortable with being handled and receiving the gavage tube (it takes about 10 days for this acclimation to occur, and is important so that the animals are not stressed by the gavage). Daily measurements include the following: • 1. Weight • 2. Weight of food consumed • 3. Spillage • 4. Water consumed, both volume and weight The rats remain confined and are denied out-of-cage activity or exercise for the duration of the experiment other than normal daily activity confined to the cage. This initial 10 day period establishes a pattern and average of weight gain, to acclimate the animals to the gavage procedure, and determine the average food and water consumption for each rat. […]
At the end of the study, rats are anesthetized then sacrificed via guillotine. […] Weight of the uterus is determined. […]

Q: Which “body weight &/or body fat” value does the source give for `CCCCCCCC/C=C\CCCCCCCC(=O)Oc1cc2c(cc1O)[C@H]1CC[C@]3(C)C(=O)CC[C@H]3[C@@H]1CC2` [2HOE, 2 hydroxyestrone oleate] here?
A: The value was “reduction of body weight &/or body fat”.

Q: And the food consumption?
A: The food consumption was “reduction in food consumption”.
